Values of other authors as cited in patent US20170326065A1, “METHODS AND COMPOSITION FOR TREATMENT OF CARDIOVASCULAR CONDITIONS” (Ezra Pharma LLC, priority 2016, published 2017).

Q: Which “T1/2 alpha phase of elimination” value (biphasic elimination, rapid alpha phase) does the source give for `CCCCC(=O)N(Cc1ccc(-c2ccccc2-c2nnn[nH]2)cc1)[C@H](C(=O)O)C(C)C` [valsartan] here?
A: Its value is 1 to 2 h.

Q: And the “T1/2 beta phase of elimination” value (biphasic elimination, slow beta phase, in h)?
A: The value was 7-8.

Q: And the “peak plasma concentration reduced to” value (by 12 hours, marketed immediate release formulation)?
A: Its value is “approximately 65%”.

Q: What about the absolute bioavailability (oral administration, printed range (10-35%)) of the same compound?
A: The absolute bioavailability was “about 25%”.

Q: What about the half-life (valsartan) of the same compound?
A: Its half-life is “about 6 hours”.

Q: What about the Tmax (valsartan, oral) of the same compound?
A: The Tmax was 2 to 4 h.
